Measurements published in PubChem BioAssay (NCI).
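Cells were grown in 96-well plates and exposed to each compound for 48 hours at five concentrations; endpoints were interpolated linearly between bracketing concentrations, or set to the highest concentration if not reached. At the GI50, growth is halved. TGI is the concentration that stops growth completely.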

Experiments:
Assay in all cases: NCI tumour cell line growth inhibition, 48 h
[1] = test system: HCT-15 colon
[2] = test system: SNB-75 CNS
[3] = test system: NCI-H226 lung
[4] = test system: HT29 colon
[5] = test system: SW-620 colon
[6] = test system: M14 melanoma
[7] = test system: SF-268 CNS
[8] = test system: KM12 colon
[9] = test system: TK-10 renal
[10] = test system: UO-31 renal

| Structure (SMILES) | GI50 [1] | TGI [1] | GI50 [2] | TGI [2] | GI50 [3] | TGI [3] | GI50 [4] | TGI [4] | GI50 [5] | TGI [5] | GI50 [6] | TGI [6] | GI50 [7] | TGI [7] | GI50 [8] | TGI [8] | GI50 [9] | TGI [9] | GI50 [10] | TGI [10] |
| --- | --- | --- | --- | --- | --- | --- | --- | --- | --- | --- | --- | --- | --- | --- | --- | --- | --- | --- | --- | --- |
| COc1cc(C2CC(c3ccc(C)cc3)=NN2C(C)=O)ccc1Oc1ccnc2cc(Cl)ccc12 (configuration not stated) | > 100 µM | > 100 µM | 0.482 µM | 5.93 µM | 5.38 µM | > 100 µM | > 100 µM | > 100 µM | > 100 µM | > 100 µM | > 100 µM | > 100 µM | 38.4 µM | > 100 µM | > 100 µM | > 100 µM | – | – | – | – |
| CCSc1sc(-c2ccc(C)cc2)nc1[P+](c1ccccc1)(c1ccccc1)c1ccccc1 | 0.315 µM | 1.18 µM | 0.192 µM | 0.802 µM | – | – | – | – | 0.332 µM | 1.34 µM | 0.342 µM | 1.51 µM | 0.328 µM | 1.43 µM | 0.281 µM | 1.16 µM | 0.271 µM | 1.48 µM | 0.254 µM | 0.866 µM |
| COc1cc(C=C2C(=O)OC(C)(C)OC2=O)cc(OC)c1OC | – | > 100 µM | – | – | – | > 100 µM | – | > 100 µM | – | > 100 µM | – | > 100 µM | – | > 100 µM | – | > 100 µM | – | > 100 µM | – | > 100 µM |
| COc1cc(OC)c(Oc2cccc(OC)c2OC)c(OC)c1 | – | – | – | > 100 µM | – | > 100 µM | – | > 100 µM | – | > 100 µM | – | > 100 µM | – | > 100 µM | – | > 100 µM | – | > 100 µM | – | > 100 µM |
| COc1ccc(OC)c(-c2cc(-c3ccc(Cl)cc3)nn2-c2ccc(S(N)(=O)=O)cc2)c1 | 2.84 µM | 10.7 µM | – | – | 11.4 µM | 26.1 µM | – | – | 4.29 µM | > 100 µM | 7.73 µM | 19.7 µM | 13.9 µM | 32.9 µM | 5.16 µM | 21.2 µM | 6.56 µM | 22.7 µM | 21.8 µM | > 100 µM |
| CC(C)(C)NC(=O)C12C3C4C1C1C2C3C41I (configuration not stated) | – | > 100 µM | – | – | – | > 100 µM | – | > 100 µM | – | > 100 µM | – | – | – | – | – | > 100 µM | – | > 100 µM | – | > 100 µM |
| CCOc1cccc2cccnc12 | – | – | – | > 100 µM | – | > 100 µM | – | > 100 µM | – | > 100 µM | – | > 100 µM | – | > 100 µM | – | > 100 µM | – | > 100 µM | – | > 100 µM |
| COc1ccc(/C(C#N)=C/c2nc3c(N4CCOCC4)nc(Cl)nc3n2C)cc1OC | < 0.01 µM | 1.62 µM | < 0.01 µM | < 0.01 µM | – | – | < 0.01 µM | 1.4 µM | < 0.01 µM | 1.63 µM | < 0.01 µM | – | 0.0173 µM | 2.23 µM | < 0.01 µM | 1.26 µM | 0.924 µM | 2.33 µM | < 0.01 µM | 1.65 µM |
| Cn1c(=O)c2[nH]c(Nc3ccccc3)nc2n(C)c1=O | – | > 10 µM | – | > 10 µM | – | – | – | > 10 µM | – | > 10 µM | – | > 10 µM | – | > 10 µM | – | > 10 µM | – | > 10 µM | – | – |
